Test results: patent US9387198B1 (priority 2015, dated 2016)

Tests used:
[1] = molecular target: T1, human serum albumin (HSA) (Homo sapiens, UniProt P02768); experiment: Fluorescence-based anti-glycation assay (fructose-mediated glycation of HSA); assay type: biochemical; conditions: compared to reference compound rutin
T1 construct: purchased Sigma Aldrich, St. Louis, Mo., USA
Procedure: Prior to incubation, rutin (reference compound) and 6-nitrobenzimidazole derivatives were added to a reaction mixture to a final concentration of 1 mM. DMSO was used as a solvent (final concentration: 10%) in this assay.
Percentage Inhibition=(1−Fluorescence of test compounds/Fluorescence of glycated-HSA)×100 Where, Test compounds=6-Nitrobenzimidazole derivatives

[2] = Cytotoxicity evaluation by MTT-assay; conditions: mouse, mouse fibroblast (3T3) cells
Procedure: (§1) Cytotoxicity evaluation was also carried out against mouse fibroblast (3T3) cell-line by employing MTT-assay.

[3] = test system: rat hepatocytes (CC1-Cell line); experiment: Fructose-derived AGE-induced intracellular ROS production (DCFH-DA technique); assay type: cell-based; conditions: for effect on ROS production (in words): AGE 200 μg/mL; for Fluorescence (Average), AGE-mediated intracellular ROS production: co-incubated with AGEs 200 μg/mL, 24 hours
Procedure: Procedure of the Assay: Briefly, 6×10^4 cells/mL cells (normal rat hepatocytes: CC1-Cell line) were seeded on a 96-well plate and kept for 24 hours in an incubator, containing 5% CO2 at 37° C. […] Initially the cells were incubated with 10 μM DCFH-DA non fluorescent probe, for 45 mins in the dark environment. […] The control was treated with 0.5% H2O2 just before 1 hour prior to halt the incubation period.
Detection of Fluorescence Intensity: The intensity of fluorescence was measured at an excitation 490 nm and an emission 520 nm, using Spectra Max Spectrophotometer (Applied Biosystems, CA, USA).
Where, Blank=Normal rat hepatocytes Control=Rat hepatocytes treated with 0.5% […] Test compound=6-Nitrobenzimidazole derivative

[4] = test system: rat hepatocytes (CC1-Cell line); experiment: Fructose-derived AGE-mediated diminished growth of hepatocytes (MTT assay); assay type: cell-based; conditions: for effect on hepatocytes growth and proliferation (in words) / Percentage Inhibition (remaining growth inhibition of hepatocytes versus normal cells): AGEs 200 μg/mL; for Percentage Inhibition (remaining growth inhibition of hepatocytes versus normal cells): lower = more growth restored; for Absorbance (Average), AGE-mediated diminished growth of the hepatocytes: co-incubated with AGEs 200 μg/mL, 540 nm
Procedure: The mixture was incubated at 37° C. for 12 weeks under dark sterile environment. […] The cells treated with Triton X-100 were used as a blank, while normal cells remain untreated were used as a control.
MTT Assay: Following 24 hours of incubation, the plate was decanted to remove the medium and the cells were washed with 1×PBS. The MTT-dye (50 μL: 2 mg/mL) was then loaded to each well. 200 μL (final reaction volume) was reconstituted by serum free-MEM (Minimum essential media) in a dark environment. The plate was incubated in 5% CO2 containing incubator at 37° C. for the next 4 hours. At the end of the incubation, the medium was removed and the crystals were dissolved by adding 100 μL DMSO into each well.
Measurement of Absorbance: The intensity of purple colored solution was measured at the wavelength of 540 nm, using Spectra Max Spectrophotometer (Applied Biosystems, CA, USA).
Where, Blank=Triton X-100 treated rat hepatocytes Control=Normal rat hepatocytes Test Compound=6-nitrobenzimidazole derivatives

in vitro = conditions: mouse
Procedure: as §1

[5] = Rattus norvegicus, Hepatocyte, 24 h, read-out: Percentage Inhibition of AGE-mediated intracellular ROS production

T1 sequence (P02768 25-609): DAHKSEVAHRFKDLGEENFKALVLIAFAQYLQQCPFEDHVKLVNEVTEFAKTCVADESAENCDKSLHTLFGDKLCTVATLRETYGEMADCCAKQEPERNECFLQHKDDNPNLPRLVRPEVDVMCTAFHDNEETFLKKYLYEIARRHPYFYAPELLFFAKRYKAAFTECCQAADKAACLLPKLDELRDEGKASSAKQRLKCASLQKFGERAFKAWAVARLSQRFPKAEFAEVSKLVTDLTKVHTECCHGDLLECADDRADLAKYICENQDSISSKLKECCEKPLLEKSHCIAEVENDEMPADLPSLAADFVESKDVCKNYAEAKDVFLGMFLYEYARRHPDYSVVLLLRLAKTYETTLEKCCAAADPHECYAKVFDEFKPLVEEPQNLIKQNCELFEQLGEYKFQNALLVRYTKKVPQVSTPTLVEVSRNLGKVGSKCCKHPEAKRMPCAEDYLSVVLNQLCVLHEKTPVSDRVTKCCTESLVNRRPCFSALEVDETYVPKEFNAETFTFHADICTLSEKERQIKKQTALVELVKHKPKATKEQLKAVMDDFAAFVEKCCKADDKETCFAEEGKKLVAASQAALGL

O=[N+]([O-])c1ccc2nc(-c3cccc(O)c3O)[nH]c2c1 [Compound 1, 3-(6-Nitro-1H-benzimidazol-2-yl)-1,2-benzenediol]
anti-glycation activity (in words) [1]: significant anti-glycation activity
cytotoxicity [2]: 35.9%

O=[N+]([O-])c1ccc2nc(-c3cc(O)ccc3O)[nH]c2c1 [Compound 2, 2-(6-Nitro-1H-benzimidazol-2-yl)-1,4-benzenediol]
anti-glycation activity (in words) [1]: significant anti-glycation activity
cytotoxicity [2]: 21.1%

O=[N+]([O-])c1ccc2nc(-c3ccsc3)[nH]c2c1 [Compound 3, 6-Nitro-2-(3-thienyl)-1H-benzimidazole]
cytotoxicity [2]: 19.7%

O=[N+]([O-])c1ccc2nc(-c3ccc(O)c(O)c3O)[nH]c2c1 [Compound 4, 4-(6-Nitro-1H-benzimidazol-2-yl)-1,2,3-benzenetriol]
inhibition at 24 µM [3, 5]: 63.6%
inhibition at 33 µM [3, 5]: 89.2%
inhibition at 49 µM [3, 5]: 93.4%
effect on ROS production (in words) ([3]; compound 24 μM): moderate activity against ROS production
Fluorescence (Average), AGE-mediated intracellular ROS production ([3]; compound 24 μM): 138.8
effect on ROS production (in words) ([3]; compound 33 μM): significantly impaired the ROS production
Fluorescence (Average), AGE-mediated intracellular ROS production ([3]; compound 33 μM): 97.5
effect on ROS production (in words) ([3]; compound 49 μM): inhibited the AGE-induced ROS production in rat hepatocytes in a remarkably significant manner
Fluorescence (Average), AGE-mediated intracellular ROS production ([3]; compound 49 μM): 90.7
effect on hepatocytes growth and proliferation (in words) ([4]; compound 24 μM): significant effect on the growth and proliferation
Percentage Inhibition (remaining growth inhibition of hepatocytes versus normal cells) ([4]; compound 24 μM, 24 hours): 35.8%
Absorbance (Average), AGE-mediated diminished growth of the hepatocytes ([4]; compound 24 μM, 24 hours): 0.91
effect on hepatocytes growth and proliferation (in words) ([4]; compound 33 μM, 24 hours): significantly restored the growth and proliferation
Percentage Inhibition (remaining growth inhibition of hepatocytes versus normal cells) ([4]; compound 33 μM, 24 hours): 34.3%
Absorbance (Average), AGE-mediated diminished growth of the hepatocytes ([4]; compound 33 μM, 24 hours): 0.93
effect on hepatocytes growth and proliferation (in words) ([4]; compound 49 μM): as effective as 33 μM concentration in reducing the toxicity of AGEs
Percentage Inhibition (remaining growth inhibition of hepatocytes versus normal cells) ([4]; compound 49 μM, 24 hours): 22.2%
Absorbance (Average), AGE-mediated diminished growth of the hepatocytes ([4]; compound 49 μM, 24 hours): 1.05
anti-glycation activity (in words) [1]: significant anti-glycation activity
cytotoxicity [2]: 9.8%

O=[N+]([O-])c1ccc2nc(-c3c(O)cc(O)cc3O)[nH]c2c1 [Compound 5, 2-(6-Nitro-1H-benzimidazol-2-yl)-1,3,5-benzenetriol]
cytotoxicity [2]: 4%

O=[N+]([O-])c1ccc2nc(-c3ccc(O)c(O)c3)[nH]c2c1 [Compound 6, 4-(6-Nitro-1H-benzimidazol-2-yl)-1,2-benzenediol]
anti-glycation activity (in words) [1]: significant anti-glycation activity
cytotoxicity [2]: 3.4%

O=[N+]([O-])c1ccc2nc(-c3ccc(O)cc3O)[nH]c2c1 [Compound 7, 4-(6-Nitro-1H-benzimidazol-2-yl)-1,3-benzenediol]
cytotoxicity (in vitro): 37.4%
anti-glycation activity (in words) [1]: significant anti-glycation activity

Cc1ccc(-c2nc3cc([N+](=O)[O-])ccc3[nH]2)cc1 [Compound 8, 2-(4-Methylphenyl)-6-nitro-1H-benzimidazole]
cytotoxicity [2]: 59.2%

O=[N+]([O-])c1ccc(-c2nc3cc([N+](=O)[O-])ccc3[nH]2)cc1 [Compound 9, 6-Nitro-2-(4-nitrophenyl)-1H-benzimidazole]
cytotoxicity [2]: 45.2%

O=[N+]([O-])c1ccc2nc(-c3ccc(O)cc3)[nH]c2c1 [Compound 10, 4-(6-Nitro-1H-benzimidazol-2-yl) phenol]
cytotoxicity [2]: 3.6%
